{"source": "patent US20250049090A1", "about": "“A NUTRITIONAL SUPPLEMENT FOR IMPROVED GUT HEALTH” (Haleon US Holdings LLC, priority 2021, published 2025)", "key": {"[1]": {"conditions": "ZnC supplementation 150 mg/day for 1 week; cited from earlier work"}, "[2]": {"system": "human gut microbiota", "test": "In vitro gut model batch culture fermentation, organic acid production by gas chromatography", "type": "cell-based", "conditions": "'except' = not significantly elevated", "experimental": "(§1) In vitro gut model batch culture fermentations were run for 72 hours. Samples were collected for bacterial enumeration and organic acid production through fluorescent in situ hybridisation combined with flow cytometry and gas chromatography, respectively. Overall, the main findings were that the ZnC supplementation combined with WD increased in Bifidobacterium spp., and Clostridium histolyticum group but this finding was not shown in the vessels consisting of the ZnC components only. […] Optimising the dose and substrate availability is important to ensure homeostasis and prevent potential pathogenic bacterial growth. […]\n(§2) A 750 μl sample was collected from each vessel at timepoints 0, 8, 24, 48 and 72 hours. […] The subsequent pellet was used for bacterial enumeration through fluorescence in situ hybridisation flow-cytometry (FISH-FCM) and 500 μl of supernatant used to assess organic acid production via gas chromatography. […]\n(§3) All statistical results were analysed in Prism 8 version 8.4.0 (GraphPad Prism 8, San Diego, California, USA). The FISH-FCM and organic acid production were analysed using two-way mixed ANOVA to compare different test substrates and time points. […]"}, "[3]": {"system": "total bacteria", "test": "In vitro gut model batch culture fermentation, FISH-FCM enumeration of total bacteria (Eub)", "type": "cell-based, human faecal bacteria", "conditions": "until 48 h, WD experiment; 'except' = not elevated", "experimental": "as §1, §2, §3"}, "[4]": {"conditions": "healthy volunteers under high stress or when diarrhoea was induced; cited from earlier work"}}}
{"substance": "Zinc carnosine [ZnC]", "values": [{"measurement": "UC clinical outcomes and remission", "setting": "[1]", "result": "improve"}, {"measurement": "propionate compared to baseline", "setting": "[2]; 24, 48 and 72 h, WD experiment", "result": "except"}, {"measurement": "acetate compared to baseline", "setting": "[2]; 72 h, PHGG experiment", "result": "except"}, {"measurement": "total bacteria counts elevated", "setting": "[3]", "result": "except"}, {"measurement": "intestinal barrier function", "setting": "[4]", "result": "maintained or improved"}]}
